Source: patent US12435091B2, “RNA-binding protein multimerization inhibitors and methods of use thereof” (THE UAB RESEARCH FOUNDATION, priority 2020, dated 2025)
Values after ≈ are worked out from the molar mass of the structure shown. Values joined by “and” are separate entries in the source; they are usually repeats but may differ in a detail not shown here. Equal entries are not always repeated. Where two headings read alike, the source gives them in different places.

What was measured:
[1] = tested on: LPS-induced neuroinflammatory response in the CNS; assay: in vivo LPS mouse model of neuroinflammation; set-up: species or system mice
Method: Administration of LPS intraperitoneally produces an acute neuroinflammatory response in the CNS including activation of microglia with production of inflammatory cytokines and chemokines. This model was used to test the effect of SRI-42127 on attenuating the neuroinflammatory response.
Mice were injected with LPS intraperitoneally (i.p.) and then given SRI-42127 at 15 mg/kg (or vehicle) i.p. starting at 30 min post LPS injection and then three subsequent doses at 6 hours, 12 hours, and 18 hours. Brains were harvested at 24 hours for analysis. To determine the impact of SRI-42127 on HuR localization in microglia in the brain, sections from the hippocampus from 3 vehicle control and 3 SRI-42127 treated mice were examined. Tissue sections were stained with IBA1 and HuR. Quantification methods for HuR localization were similar to immunocytochemistry. Briefly, IBA1+ cells were identified and the outline of the cell was traced with Fiji software. Nuclei were localized by DAPI staining. Nuclear and cytoplasmic HuR immunofluorescence was quantitated to calculate a N/C ratio. In vehicle-treated animals, there was translocation of HuR into the cytoplasm as indicated by a merged yellow signal whereas in SRI-42127 treated mice, there was little to no merged signal. Next, 20-30 IBA1+ cells from sections in 3 control and 3 treated mice were assessed. A 2-fold increase in the N/C ratio of mice treated with SRI-42127 was observed, confirming the effect of the drug as shown in FIG. 18 (bottom).
Next, the activation state of microglia was studied by measuring IBA1 intensity. Sections from the hippocampal region were stained with IBA1 and fluorescence intensity was measured using Fiji software from 5 sections of 3 mice per group. The reviewer was blinded to the identity of the samples.
Finally, the impact of SRI-42127 on infiltration of neutrophils and monocytes into the brain after LPS administration i.p. was assessed. Microglial HuR knockout (KO) mice were also assessed. […]

[2] = aqueous solubility at pH 7.4; assay type: physicochemical; conditions: aqueous medium at pH 7.4, pH 7.4, aqueous buffer; read-out: Sol @ pH 7.4
Method: Selected compounds were assessed for their aqueous solubility, Log D and mouse and human liver microsomal stability.

primary human astrocytes = assay: cleaved caspase-3 immunostaining in primary human astrocytes; assay type: cell-based; conditions: up to 15 uM
Method: At the end of experiments, neurons and astrocytes were rinsed briefly with PBS and fixed by using 4% paraformaldehyde, pH 7.4 for 13 minutes at room temperature. Triton X-100 (0.3%) in PBST buffer (i.e., PBS with 0.1% Tween 20) was used for cell permeabilization for 30 minutes at room temperature. Cells were rinsed with PBST buffer 3 times for 10 minutes after fixation. Blocking buffer (3% BSA, 22.52 mg/ml glycine in PBST) was used to block unspecific antibody binding for 30 minutes at room temperature. Primary cleaved caspase 3 antibody (Cell Signaling Technology; Danvers, MA) at 1:200 dilution in PBST buffer with 1% BSA was utilized overnight at 4° C. for cleaved caspase 3 staining. The next day, cells were rinsed four times for 10 minutes with PBST buffer and then were incubated with secondary antibody (Alexa Fluor 594, goat anti-rabbit IgG, Invitrogen (Carlsbad, CA), 1:2000/5000 dilution) in PBST buffer with 1% BSA for 1 hour at room temperature in the dark. Next, cells were rinsed with PBST buffer 4 times for 10 minutes in the dark. Cell nucleus were stained with DAPI (4′,6-diamidino-2-phenylindole). Cell images were obtained with EVOS Fl (Life Technologies; Eugene, OR) imaging system.
The cellular metabolism declined by about 44% after treatment with SRI-42127, 25 uM for 48 hours as shown by FIG. 5E. […]

[3] = in vivo pharmacokinetic study in mice by ip administration; set-up: species or system C57Bl/6 mice; conditions: for concentration at 0.167 h / concentration at 0.5 h / Kp at 0.167 h / Kp at 0.5 h / Kp at 1 h / AUC(0-inf) / AUC(0-t) / Cmax / Tmax / MRT inf / half-life / Brain concentration / Plasma concentration / Ratio (Brain/Plasma) / AUCExtrap—obs: mouse; for concentration at 0.167 h / concentration at 0.5 h / Kp at 0.167 h / Kp at 0.5 h / Kp at 1 h / Brain concentration / Plasma concentration / Ratio (Brain/Plasma): 10 mg/kg IP; for AUC(0-inf) / AUC(0-t) / Cmax / Tmax / MRT inf / half-life: C57Bl/6; for MRT inf: read-out: MRTInf_obs
Method: The in vivo PK study for SRI-42127 was performed by Pharmaron (Beijing, China); pharmacokinetics were evaluated in the C57Bl/6 mice. […]

HMGB1 = assay: nuclear/cytoplasmic localization by confocal microscopy in LPS-activated primary microglia; assay type: cell-based, mouse; conditions: 0.5 μM for 24 hours
Method: To assess the specificity of SRI-42127 for blocking HuR cytoplasmic translocation, the effect of SRI-42127 on cytoplasmic translocation of HMGB1 was assessed. Like HuR, HMGB1 is nuclear predominant and translocates with microglial activation. Primary microglia were treated with LPS and 0.5 μM of SRI-42127 for 24 hours. Cells were fixed and immunostained for HMGB1 and IBA1. Nuclear/cytoplasmic localization was assessed by confocal microscopy. Total HMGB1 immunofluorescence in each cell (boundaries defined by IBA1 staining), was quantified using Fiji software. The nuclear portion was determined by quantifying the amount of HMGB1 fluorescence that overlapped with DAPI fluorescence. HuR translocation was studied in parallel with the same methodology.
In unactivated microglia (LPS-), both HuR and HMGB1 were nuclear predominant with little to no merged signal with cytoplasmic IBA1 as depicted in FIG. 11, Panel C.

Plasma protein binding = assay type: in vitro ADME
Description: Plasma protein binding for Compound 19 was 96.44%.

[4] = 15 mg/kg i.p., all brain regions at 24 hours
[5] = 0.167 h, individual animals, 10 mg/kg
[6] = 0.5 h, individual animals, 10 mg/kg
[7] = 1 h, individual animals, 10 mg/kg

CN(c1ccc2ncc(-c3ccc4cn[nH]c4c3)n2n1)C1CCOCC1 [Compound 19]
increase in the HuR N/C ratio in microglia ([1]; 15 mg/kg i.p. at 30 min, 6, 12 and 18 hours post LPS, hippocampus at 24 hours): 2 fold
attenuation of infiltrating monocytes [1, 4]: 1.3- to 2 fold
attenuation of infiltrating neutrophils [1, 4]: 2 to 3 fold
solubility [2]: 2.4 µM (≈ 0.836 µg/mL)
cleaved caspase-3 activation (primary human astrocytes): significant alterations in cleaved caspase-3 activation were not observed
concentration at 0.167 h ([3]; C57Bl/6, mouse, brain, ip, 10 mg/kg, 0.167 h, individual animals, read-out: Brain concentration): 1220 ng/g
concentration at 0.5 h ([3]; C57Bl/6, mouse, brain, ip, 10 mg/kg, 0.5 h, individual animals, read-out: Brain concentration): 420 ng/g
Kp ([3]; C57Bl/6, mouse, brain/plasma, ip, 10 mg/kg, mice, ip administration, all time points, read-out: brain/plasma concentration ratio): ~0.4
Kp at 0.167 h ([3]; C57Bl/6, mouse, brain/plasma, ip, 10 mg/kg, 0.167 h, individual animals, read-out: Ratio (Brain/Plasma)): 0.419
Kp at 0.167 h ([3]; C57Bl/6, mouse, brain/plasma, ip, 10 mg/kg, 0.167 h, read-out: Ratio (Brain/Plasma) Mean): 0.399
Kp at 0.5 h ([3]; C57Bl/6, mouse, brain/plasma, ip, 10 mg/kg, 0.5 h, individual animals, read-out: Ratio (Brain/Plasma)): 0.536
Kp at 0.5 h ([3]; C57Bl/6, mouse, brain/plasma, ip, 10 mg/kg, 0.5 h, read-out: Ratio (Brain/Plasma) Mean): 0.455
Kp at 1 h ([3]; C57Bl/6, mouse, brain/plasma, ip, 10 mg/kg, 1 h, individual animals, read-out: Ratio (Brain/Plasma)): 0.408
Kp at 1 h ([3]; C57Bl/6, mouse, brain/plasma, ip, 10 mg/kg, 1 h, read-out: Ratio (Brain/Plasma) Mean): 0.398
concentration at 0.167 h ([3]; C57Bl/6, mouse, plasma, ip, 10 mg/kg, 0.167 h, individual animals, read-out: Plasma concentration): 2910 ng/mL
concentration at 0.5 h ([3]; C57Bl/6, mouse, plasma, ip, 10 mg/kg, 0.5 h, individual animals, read-out: Plasma concentration): 782 ng/mL
AUC(0-inf) ([3]; 10 mg/kg ip, Brain): 550 ng·h/mL
AUC(0-t) ([3]; 10 mg/kg ip, Brain): 541 ng·h/mL
Cmax ([3]; 10 mg/kg ip, Brain): 1370 ng/mL
Tmax ([3]; 10 mg/kg ip, Brain): 10 min
MRT inf ([3]; 10 mg/kg ip, Brain): 18.8 min
half-life ([3]; 10 mg/kg ip, Brain, read-out: T½ (converted)): 9.6 min
AUC(0-inf) ([3]; 10 mg/kg ip, Plasma): 1340 ng·h/mL
AUC(0-t) ([3]; 10 mg/kg ip, Plasma): 1320 ng·h/mL
Cmax ([3]; 10 mg/kg ip, Plasma): 3460 ng/mL
Tmax ([3]; 10 mg/kg ip, Plasma): 10 min
MRT inf ([3]; 10 mg/kg ip, Plasma): 18.4 min
half-life ([3]; 10 mg/kg ip, Plasma, read-out: T½ (converted)): 9.6 min
half-life ([3]; dose of 10 mg/kg by IP, read-out: half-life (converted)): 9.6 min
brain/plasma concentration ratio ([3]; mice, ip administration, all time points, listed as SRI-42127): 0.42±0.05
Brain concentration [3, 5]: 1375 ng/g and 1520 ng/g
Plasma concentration [3, 5]: 3450 ng/mL and 4010 ng/mL
Ratio (Brain/Plasma) [3, 5]: 0.379
Brain concentration [3, 6]: 545 ng/g and 391 ng/g
Plasma concentration [3, 6]: 1430 ng/mL and 870 ng/mL
Ratio (Brain/Plasma) [3, 6]: 0.381 and 0.449
Brain concentration [3, 7]: 53.0 ng/g and 43.9 ng/g and 19.7 ng/g
Plasma concentration [3, 7]: 130 ng/mL and 104 ng/mL and 53.9 ng/mL
Ratio (Brain/Plasma) [3, 7]: 0.422 and 0.365
AUCExtrap—obs ([3]; 10 mg/kg ip, Brain): 1.63%
AUCExtrap—obs ([3]; 10 mg/kg ip, Plasma): 1.65%
HMGB1 N/C ratio (HMGB1): no effect
fraction unbound (Plasma protein binding): 0.0356
